Test results published in paper PMC5218480 (PLoS ONE, 2017).

Test system: MV-4-11 cells
Assay: Gene expression microarray analysis (Affymetrix PrimeView) and GSEA
Assay type: cell-based, human
Design: RFU PODN (11730768_x_at) / Fold change /veh PODN (11730768_x_at) / RFU LINC00158 (11744669_a_at) / Fold change /veh LINC00158 (11744669_a_at) / RFU DUSP10 (11751237_a_at) / Fold change /veh DUSP10 (11751237_a_at) / RFU ID3 (11757404_x_at) / Fold change /veh ID3 (11757404_x_at) / RFU PLEKHG5 (11737974_s_at) / Fold change /veh PLEKHG5 (11737974_s_at) / RFU LRRC4B (11730491_at) / Fold change /veh LRRC4B (11730491_at) / RFU GIMAP4 (11747438_a_at) / Fold change /veh GIMAP4 (11747438_a_at) / RFU KRT8 (11758183_x_at) / Fold change /veh KRT8 (11758183_x_at) / RFU CNN1 (11734310_a_at) / Fold change /veh CNN1 (11734310_a_at) / RFU VPS37D (11726825_at) / Fold change /veh VPS37D (11726825_at) / RFU C10orf10 (11716522_x_at) / Fold change /veh C10orf10 (11716522_x_at) / RFU KIR2DL2 /// KIR2DL4 /// KIR2DL5A /// KIR2DL5B /// KIR2DS1 /// KIR2DS2 /// KIR2DS3 /// KIR2DS4 /// KIR3DL3 /// KIR3DL3 /// KIR3DS1 (11738374_at) / Fold change /veh KIR2DL2 /// KIR2DL4 /// KIR2DL5A /// KIR2DL5B /// KIR2DS1 /// KIR2DS2 /// KIR2DS3 /// KIR2DS4 /// KIR3DL3 /// KIR3DL3 /// KIR3DS1 (11738374_at) / RFU C1QL1 (11718748_at) / Fold change /veh C1QL1 (11718748_at) / RFU TMPRSS4 (11747572_a_at) / Fold change /veh TMPRSS4 (11747572_a_at) / RFU HAMP (11756126_x_at) / Fold change /veh HAMP (11756126_x_at) / RFU RNFT2 (11725882_a_at) / Fold change /veh RNFT2 (11725882_a_at) / RFU NR4A2 (11747474_a_at) / Fold change /veh NR4A2 (11747474_a_at) / RFU ABCC12 (11746883_a_at) / Fold change /veh ABCC12 (11746883_a_at) / RFU TMEM136 (11760407_x_at) / Fold change /veh TMEM136 (11760407_x_at) / RFU CLDN22 /// WWC2 (11732394_at) / Fold change /veh CLDN22 /// WWC2 (11732394_at) / RFU HLA-DPB1 (11760878_x_at) / Fold change /veh HLA-DPB1 (11760878_x_at) / RFU SPINT1 (11716480_a_at) / Fold change /veh SPINT1 (11716480_a_at) / RFU GAP43 (11754022_s_at) / Fold change /veh GAP43 (11754022_s_at) / RFU A4GNT (11735810_at) / Fold change /veh A4GNT (11735810_at) / RFU PRB3 (11715151_x_at) / Fold change /veh PRB3 (11715151_x_at) / RFU TUBB4B (11761932_at) / Fold change /veh TUBB4B (11761932_at) / RFU CAPN14 (11732068_a_at) / Fold change /veh CAPN14 (11732068_a_at) / RFU TMCC2 (11721928_a_at) / Fold change /veh TMCC2 (11721928_a_at) / RFU IRGQ (11745062_a_at) / Fold change /veh IRGQ (11745062_a_at) / RFU FAM174B (11720279_a_at) / Fold change /veh FAM174B (11720279_a_at) / RFU TMPRSS4 (11748680_a_at) / Fold change /veh TMPRSS4 (11748680_a_at) / RFU FAM212B (11763350_a_at) / Fold change /veh FAM212B (11763350_a_at) / RFU PLEKHG5 (11743358_a_at) / Fold change /veh PLEKHG5 (11743358_a_at) / RFU ZSCAN30 (11745921_a_at) / Fold change /veh ZSCAN30 (11745921_a_at) / RFU CMKLR1 (11741424_a_at) / Fold change /veh CMKLR1 (11741424_a_at) / RFU LOC101060620 /// MAPK8IP1 (11723275_at) / Fold change /veh LOC101060620 /// MAPK8IP1 (11723275_at) / RFU SPTSSB (11747773_x_at) / Fold change /veh SPTSSB (11747773_x_at) / RFU PRSS12 (11739890_at) / Fold change /veh PRSS12 (11739890_at) / RFU BIN1 (11741810_x_at) / Fold change /veh BIN1 (11741810_x_at) / RFU WNT11 (11732464_a_at) / Fold change /veh WNT11 (11732464_a_at) / RFU C10orf10 (11716521_a_at) / Fold change /veh C10orf10 (11716521_a_at) / RFU C5orf56 (11738089_at) / Fold change /veh C5orf56 (11738089_at) / RFU CYB561 (11721691_x_at) / Fold change /veh CYB561 (11721691_x_at) / RFU ANKRD19P (11752326_a_at) / Fold change /veh ANKRD19P (11752326_a_at) / RFU OR2T12 /// OR2T33 /// OR2T8 (11738714_s_at) / Fold change /veh OR2T12 /// OR2T33 /// OR2T8 (11738714_s_at) / RFU VCAN (11748164_a_at) / Fold change /veh VCAN (11748164_a_at) / RFU JSRP1 (11732532_at) / Fold change /veh JSRP1 (11732532_at) / RFU KRTAP10-11 (11738290_x_at) / Fold change /veh KRTAP10-11 (11738290_x_at) / RFU MYO3A (11730013_a_at) / Fold change /veh MYO3A (11730013_a_at) / RFU EBF3 (11725865_a_at) / Fold change /veh EBF3 (11725865_a_at) / RFU CAMK2N1 (11719241_x_at) / Fold change /veh CAMK2N1 (11719241_x_at) / RFU C5orf56 (11738088_a_at) / Fold change /veh C5orf56 (11738088_a_at) / RFU OLFML3 (11715873_a_at) / Fold change /veh OLFML3 (11715873_a_at) / RFU LOC100653217 /// NTM (11731650_a_at) / Fold change /veh LOC100653217 /// NTM (11731650_a_at) / RFU MAPK11 (11762145_a_at) / Fold change /veh MAPK11 (11762145_a_at) / RFU FIZ1 (11724087_x_at) / Fold change /veh FIZ1 (11724087_x_at) / RFU OASL (11726364_x_at) / Fold change /veh OASL (11726364_x_at) / RFU SOX15 (11748057_x_at) / Fold change /veh SOX15 (11748057_x_at) / RFU CD79A (11719716_a_at) / Fold change /veh CD79A (11719716_a_at) / RFU HIST1H1D (11736915_at) / Fold change /veh HIST1H1D (11736915_at) / RFU CASKIN2 (11723855_a_at) / Fold change /veh CASKIN2 (11723855_a_at) / RFU LOC730098 (11760151_x_at) / Fold change /veh LOC730098 (11760151_x_at) / RFU OR4N2 (11742367_at) / Fold change /veh OR4N2 (11742367_at) / RFU PRRT2 (11749266_a_at) / Fold change /veh PRRT2 (11749266_a_at) / RFU SNX32 (11753110_a_at) / Fold change /veh SNX32 (11753110_a_at) / RFU CDHR5 (11726645_a_at) / Fold change /veh CDHR5 (11726645_a_at) / RFU RCAN1 (11760418_a_at) / Fold change /veh RCAN1 (11760418_a_at) / RFU FAM167A (11723789_a_at) / Fold change /veh FAM167A (11723789_a_at) / RFU FAM26E (11764081_at) / Fold change /veh FAM26E (11764081_at) / RFU ISYNA1 (11749810_s_at) / Fold change /veh ISYNA1 (11749810_s_at) / RFU ACY1 (11761880_at) / Fold change /veh ACY1 (11761880_at) / RFU 11764098_at / Fold change /veh 11764098_at / RFU SAMD14 (11745864_x_at) / Fold change /veh SAMD14 (11745864_x_at) / RFU NPB (11741838_a_at) / Fold change /veh NPB (11741838_a_at) / RFU TMPRSS6 (11731388_a_at) / Fold change /veh TMPRSS6 (11731388_a_at) / RFU KRTAP10-2 (11738614_at) / Fold change /veh KRTAP10-2 (11738614_at) / RFU ARHGAP8 /// PRR5-ARHGAP8 (11727945_x_at) / Fold change /veh ARHGAP8 /// PRR5-ARHGAP8 (11727945_x_at) / RFU KRTAP5-7 /// NADSYN1 (11734609_at) / Fold change /veh KRTAP5-7 /// NADSYN1 (11734609_at) / RFU RASL12 (11751679_a_at) / Fold change /veh RASL12 (11751679_a_at) / RFU CDKN2B (11736163_a_at) / Fold change /veh CDKN2B (11736163_a_at) / RFU PRF1 (11729649_at) / Fold change /veh PRF1 (11729649_at) / RFU, ZNF638 /// ZNF638-IT1 / Fold change vs veh, ZNF638 /// ZNF638-IT1 / RFU, PANK3 / Fold change vs veh, PANK3 / RFU, SH3YL1 / Fold change vs veh, SH3YL1 / RFU, ZEB2 / Fold change vs veh, ZEB2 / RFU, NRIP1 / Fold change vs veh, NRIP1 / RFU, PTTG1IP / Fold change vs veh, PTTG1IP / RFU, CAPN2 / Fold change vs veh, CAPN2 / RFU, MED14 / Fold change vs veh, MED14 / RFU, SNORA58 / Fold change vs veh, SNORA58 / RFU, C1orf63 / Fold change vs veh, C1orf63 / RFU, LRRFIP1 / Fold change vs veh, LRRFIP1 / RFU, NDUFAF7 / Fold change vs veh, NDUFAF7 / RFU, SLC12A2 / Fold change vs veh, SLC12A2 / RFU, IBTK / Fold change vs veh, IBTK / RFU, ESF1 / Fold change vs veh, ESF1 / Fold change vs veh, TMEM50B / RFU, TAOK1 / Fold change vs veh, TAOK1 / RFU, ACBD3 / Fold change vs veh, ACBD3 / RFU, TMA16 / Fold change vs veh, TMA16 / RFU, RWDD3 / Fold change vs veh, RWDD3 / RFU, BCAT1 / Fold change vs veh, BCAT1 / RFU, EDEM3 / Fold change vs veh, EDEM3 / RFU, TMEM33 / Fold change vs veh, TMEM33 / RFU, WDR75 / Fold change vs veh, WDR75 / RFU, AHCTF1 / Fold change vs veh, AHCTF1 / RFU, TFRC / Fold change vs veh, TFRC / RFU, ZDHHC17 / Fold change vs veh, ZDHHC17 / RFU, NOM1 / Fold change vs veh, NOM1 / RFU, ARL8B / Fold change vs veh, ARL8B / RFU, ZBTB11 / Fold change vs veh, ZBTB11 / RFU, TAMM41 / Fold change vs veh, TAMM41 / RFU, KIAA1704 /// LOC100996395 / Fold change vs veh, KIAA1704 /// LOC100996395 / RFU, ING1 / Fold change vs veh, ING1 / RFU, TRMT61B / Fold change vs veh, TRMT61B / RFU, FUBP3 / Fold change vs veh, FUBP3 / RFU, TP53 / Fold change vs veh, TP53 / RFU, TNKS2 / Fold change vs veh, TNKS2 / RFU, ZFP14 / Fold change vs veh, ZFP14 / RFU, ACTR2 / Fold change vs veh, ACTR2 / RFU, PPP3R1 / Fold change vs veh, PPP3R1 / RFU, PIK3R1 / Fold change vs veh, PIK3R1 / RFU, HNRNPA1 / Fold change vs veh, HNRNPA1 / RFU, RNF170 / Fold change vs veh, RNF170 / RFU, ZNF28 / Fold change vs veh, ZNF28 / RFU, RNGTT / Fold change vs veh, RNGTT / RFU, OGT / Fold change vs veh, OGT / RFU, BRD1 / Fold change vs veh, BRD1 / RFU, MARS / Fold change vs veh, MARS / RFU, ZNF655 / Fold change vs veh, ZNF655 / RFU, FAHD1 / Fold change vs veh, FAHD1 / RFU, BDP1 / Fold change vs veh, BDP1 / RFU, LRRCC1 / Fold change vs veh, LRRCC1 / RFU, ARID1A / Fold change vs veh, ARID1A / RFU, ZNF146 / Fold change vs veh, ZNF146 / RFU, ZNF330 / Fold change vs veh, ZNF330 / RFU, GPN3 / Fold change vs veh, GPN3 / RFU, C9orf123 / Fold change vs veh, C9orf123 / RFU, N4BP2L2 / Fold change vs veh, N4BP2L2 / RFU, ARFIP1 / Fold change vs veh, ARFIP1 / RFU, FAM179B / Fold change vs veh, FAM179B / RFU, BCL10 / Fold change vs veh, BCL10 / RFU, UHRF1BP1L / Fold change vs veh, UHRF1BP1L / RFU, BET1 / Fold change vs veh, BET1 / RFU, CNOT2 / Fold change vs veh, CNOT2 / RFU, ZNF268 / Fold change vs veh, ZNF268 / Fold change vs veh, ZNF507 / RFU, DGCR2 / Fold change vs veh, DGCR2 / RFU, WDSUB1 / Fold change vs veh, WDSUB1 / Fold change vs veh, HSP90B1 /// MIR3652 / RFU, ADSS / Fold change vs veh, ADSS / RFU, GK / Fold change vs veh, GK / RFU, ZNF148 / Fold change vs veh, ZNF148 / RFU, TAF9 / Fold change vs veh, TAF9 / RFU, SLC1A5 / Fold change vs veh, SLC1A5 / RFU, SLMO2 / Fold change vs veh, SLMO2 / RFU, ABCC4 / Fold change vs veh, ABCC4 / RFU, LOC101060439 /// RAP1B / Fold change vs veh, LOC101060439 /// RAP1B / RFU, RFX7 / Fold change vs veh, RFX7 / RFU, GTPBP10 / Fold change vs veh, GTPBP10 / RFU, CNEP1R1 / Fold change vs veh, CNEP1R1 / RFU, BIVM-ERCC5 /// ERCC5 / Fold change vs veh, BIVM-ERCC5 /// ERCC5 / RFU, ILF3 / Fold change vs veh, ILF3 / RFU 11762660_at / Fold change /veh 11762660_at / RFU VCAN (11757783_s_at) / Fold change /veh VCAN (11757783_s_at) / RFU DDX43 (11728927_at) / Fold change /veh DDX43 (11728927_at) / RFU KRT8 (11758188_x_at) / Fold change /veh KRT8 (11758188_x_at) / RFU NKD1 (11759106_at) / Fold change /veh NKD1 (11759106_at) / RFU SRD5A1 (11742802_a_at) / Fold change /veh SRD5A1 (11742802_a_at) / RFU TPSAB1 /// TPSB2 (11721975_s_at) / Fold change /veh TPSAB1 /// TPSB2 (11721975_s_at) / RFU GSTM3 (11746129_a_at) / Fold change /veh GSTM3 (11746129_a_at) / RFU IL23R (11737362_x_at) / Fold change /veh IL23R (11737362_x_at) / RFU TMEM51 (11727254_a_at) / Fold change /veh TMEM51 (11727254_a_at) / RFU PIWIL2 (11732686_x_at) / Fold change /veh PIWIL2 (11732686_x_at) / RFU ORM1 (11744905_x_at) / Fold change /veh ORM1 (11744905_x_at) / RFU CCDC152 (11743942_at) / Fold change /veh CCDC152 (11743942_at) / RFU ECM1 (11717891_a_at) / Fold change /veh ECM1 (11717891_a_at) / RFU IL23R (11748794_a_at) / Fold change /veh IL23R (11748794_a_at) / RFU TNFAIP8L3 (11732012_x_at) / Fold change /veh TNFAIP8L3 (11732012_x_at) / RFU MBOAT4 (11741988_at) / Fold change /veh MBOAT4 (11741988_at) / RFU 11764193_at / Fold change /veh 11764193_at / RFU TMEM53 (11763286_at) / Fold change /veh TMEM53 (11763286_at) / RFU MAGEB2 (11727129_at) / Fold change /veh MAGEB2 (11727129_at) / RFU TMEM200A (11744735_a_at) / Fold change /veh TMEM200A (11744735_a_at) / RFU CCDC152 (11751479_a_at) / Fold change /veh CCDC152 (11751479_a_at) / RFU FAM211A (11726209_a_at) / Fold change /veh FAM211A (11726209_a_at) / RFU RGS16 (11746705_a_at) / Fold change /veh RGS16 (11746705_a_at) / RFU VCAN (11755009_s_at) / Fold change /veh VCAN (11755009_s_at) / RFU RHOB (11743442_s_at) / Fold change /veh RHOB (11743442_s_at) / RFU RGS16 (11720943_a_at) / Fold change /veh RGS16 (11720943_a_at) / RFU RGS16 (11720944_at) / Fold change /veh RGS16 (11720944_at) / RFU, VPS4B / Fold change vs veh, VPS4B / RFU, CREB1 / Fold change vs veh, CREB1 / RFU, DNAJC13 / Fold change vs veh, DNAJC13 / RFU, GNAQ / Fold change vs veh, GNAQ / RFU, CDK5R1 / Fold change vs veh, CDK5R1 / RFU, ZRANB3 / Fold change vs veh, ZRANB3 / RFU, CUL4A / Fold change vs veh, CUL4A / RFU, CCNY / Fold change vs veh, CCNY / RFU, UFL1 / Fold change vs veh, UFL1 / RFU, COG3 / Fold change vs veh, COG3 / RFU, DIAPH2 / Fold change vs veh, DIAPH2 / RFU, SKA2 / Fold change vs veh, SKA2 / RFU, AFF3 / Fold change vs veh, AFF3 / RFU, LMF1 / Fold change vs veh, LMF1 / RFU, IPO11 / Fold change vs veh, IPO11 / RFU, DFFB / Fold change vs veh, DFFB / RFU, FOXP1 / Fold change vs veh, FOXP1 / RFU, CARD8 / Fold change vs veh, CARD8 / RFU, STRN3 / Fold change vs veh, STRN3 / RFU, ADK / Fold change vs veh, ADK / RFU, RASSF2 / Fold change vs veh, RASSF2 / RFU, WIPF1 / Fold change vs veh, WIPF1 / RFU, LARP1B / Fold change vs veh, LARP1B / RFU, RASA1 / Fold change vs veh, RASA1 / RFU, RB1 / Fold change vs veh, RB1 / RFU, PPFIA1 / Fold change vs veh, PPFIA1 / RFU, MAT2A / Fold change vs veh, MAT2A / RFU, CCT5 / Fold change vs veh, CCT5 / RFU, WDR92 / Fold change vs veh, WDR92 / RFU, CUX1 / Fold change vs veh, CUX1 / RFU, TTC7A / Fold change vs veh, TTC7A / RFU, TMEM135 / Fold change vs veh, TMEM135 / RFU, DEPTOR / Fold change vs veh, DEPTOR / RFU, CPM / Fold change vs veh, CPM / RFU, DNAJB6 / Fold change vs veh, DNAJB6 / RFU, CACNA2D3 / Fold change vs veh, CACNA2D3 / RFU, DTX4 / Fold change vs veh, DTX4 / RFU, TFCP2 / Fold change vs veh, TFCP2 / RFU, GMCL1 /// GMCL1P1 / Fold change vs veh, GMCL1 /// GMCL1P1 / RFU, AEBP2 / Fold change vs veh, AEBP2 / RFU, SNHG1 /// SNORD22 /// SNORD25 /// SNORD26 /// SNORD27 /// SNORD28 /// SNORD29 /// SNORD31 / Fold change vs veh, SNHG1 /// SNORD22 /// SNORD25 /// SNORD26 /// SNORD27 /// SNORD28 /// SNORD29 /// SNORD31 / Fold change (Aza/veh), C12orf56 (ProbeSet 11735607_a_at) / Fold change (ACY-1035/veh), C12orf56 (ProbeSet 11735607_a_at) / Fold change (Aza/veh), FGFR1OP (ProbeSet 11751329_s_at) / Fold change (ACY-1035/veh), FGFR1OP (ProbeSet 11751329_s_at) / Fold change (Aza/veh), VPS36 (ProbeSet 11739960_a_at) / Fold change (ACY-1035/veh), VPS36 (ProbeSet 11739960_a_at) / RFU SYPL1 (11715823_x_at) / Fold change /veh SYPL1 (11715823_x_at) / RFU IGFBP7 (11715501_s_at) / Fold change /veh IGFBP7 (11715501_s_at) / RFU REEP3 (11722064_at) / Fold change /veh REEP3 (11722064_at) / RFU IGLL1 (11728026_x_at) / Fold change /veh IGLL1 (11728026_x_at): dose or concentration left out as unconfirmed
Settings: MV-4-11 cells, 48 hours

SMILES: Nc1ncn([C@@H]2O[C@H](CO)[C@@H](O)[C@H]2O)c(=O)n1 [azacitidine]
- Fold change /veh NPB (11741838_a_at): 0.96
